Counter-ions that a name gives are not always drawn. Like-named read-outs stand apart in the source and are kept apart here.
Biological target: T1, recombinant full-length USP7 (Homo sapiens, UniProt Q93009)
T1 construct: A 25 μl reaction volume containing recombinant full-length USP7 (62 pM)
Assay: USP7-mediated ubiquitin-rhodamine cleavage assay
Assay type: biochemical
Conditions: recombinant full-length USP7 62 pM, ubiquitin-rhodamine 100 nM, 1 hour reaction at room temperature
Summary of the method: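 After compound and enzyme (62 pM) sat together 30 min at RT, 100 nM fluorogenic ubiquitin-rhodamine substrate was added for 1 h protected from light. Acetic acid quenched the reaction prior to the fluorescence read.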

[1] = 30-minute incubation with compound, read-out: Potency: USP7 IC50
[2] = 30-minute incubation, read-out: Potency (USP7 IC50)
[3] = 30-minute pre-incubation, read-out: Potency (USP7 IC50)

T1 sequence (Q93009 whole entry): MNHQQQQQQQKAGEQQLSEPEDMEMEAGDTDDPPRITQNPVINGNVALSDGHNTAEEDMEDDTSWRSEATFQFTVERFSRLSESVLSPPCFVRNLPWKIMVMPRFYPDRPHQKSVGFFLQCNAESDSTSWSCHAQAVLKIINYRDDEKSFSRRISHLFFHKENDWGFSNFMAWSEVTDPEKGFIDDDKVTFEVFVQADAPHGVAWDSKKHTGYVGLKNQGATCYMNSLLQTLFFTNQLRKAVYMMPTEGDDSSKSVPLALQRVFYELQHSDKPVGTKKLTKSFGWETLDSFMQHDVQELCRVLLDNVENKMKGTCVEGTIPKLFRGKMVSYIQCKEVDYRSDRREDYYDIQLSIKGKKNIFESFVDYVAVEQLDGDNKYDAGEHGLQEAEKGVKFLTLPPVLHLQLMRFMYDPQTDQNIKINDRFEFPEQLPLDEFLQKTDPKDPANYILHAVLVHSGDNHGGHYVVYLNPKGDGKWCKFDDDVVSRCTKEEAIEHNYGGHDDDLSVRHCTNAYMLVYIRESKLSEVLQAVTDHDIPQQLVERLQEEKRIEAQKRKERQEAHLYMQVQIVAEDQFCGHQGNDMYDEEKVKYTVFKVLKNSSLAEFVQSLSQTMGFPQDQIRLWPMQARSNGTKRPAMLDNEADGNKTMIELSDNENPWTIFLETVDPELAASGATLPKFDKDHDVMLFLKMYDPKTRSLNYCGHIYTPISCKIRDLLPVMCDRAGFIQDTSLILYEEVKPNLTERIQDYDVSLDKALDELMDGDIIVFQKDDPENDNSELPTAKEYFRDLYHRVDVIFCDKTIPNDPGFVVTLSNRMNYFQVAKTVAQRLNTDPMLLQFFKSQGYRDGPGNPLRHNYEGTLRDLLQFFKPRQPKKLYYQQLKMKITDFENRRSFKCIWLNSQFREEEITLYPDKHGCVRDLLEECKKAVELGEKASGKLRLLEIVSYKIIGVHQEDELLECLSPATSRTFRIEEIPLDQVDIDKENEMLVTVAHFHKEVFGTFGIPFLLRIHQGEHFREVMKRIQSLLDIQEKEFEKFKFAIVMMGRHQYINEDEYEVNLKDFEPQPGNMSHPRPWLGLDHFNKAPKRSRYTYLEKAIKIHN

SMILES	IC50 [1]	also measured
Cc1cc(Cl)cc(-c2ccnc3cc(Cn4c(=O)ccn(C)c4=O)sc23)c1OC1CCNCC1 [Example 195, 3-((7-(5-Chloro-3-methyl-2-(piperidin-4-yloxy)phenyl)thieno[3,2-b]pyridin-2-yl)methyl)-1-methylpyrimidine-2,4(1H,3H)-dione]	< 1 µM	–
CCN1CC[C@@H](Oc2c(C)cc(Cl)cc2-c2ccnc3cc(Cn4c(=O)ccn(CC(F)(F)F)c4=O)sc23)[C@@H](C)C1 [Example 690, 3-[[7-[5-chloro-2-[[(3S,4R)-1-ethyl-3-methyl-4-piperidyl]oxy]-3-methyl-phenyl]thieno[3,2-b]pyridin-2-yl]methyl]-1-(2,2,2-trifluoroethyl)pyrimidine-2,4-dione]	–	IC50 [2]: < 1 µM
CC[C@@H]1C[C@H](Oc2c(C)cc(Cl)cc2-c2ccnc3cc(Cn4c(=O)ccn(C)c4=O)sc23)CCN1 [Example 611, 3-[[7-[5-chloro-2-[[(2R,4R)-2-ethyl-4-piperidyl]oxy]-3-methyl-phenyl]thieno[3,2-b]pyridin-2-yl]methyl]-1-methyl-pyrimidine-2,4-dione]	–	IC50 [3]: < 1 µM
Cc1cc(Cl)cc(-c2ccnc3cc(CN4C(=O)CCC4=O)sc23)c1OC1CC[C@@H](C)NC1 (stereo partly drawn) [Example 463, 1-[[7-[5-chloro-3-methyl-2-[[(6R)-6-methyl-3-piperidyl]oxy]phenyl]thieno[3,2-b]pyridin-2-yl]methyl]pyrrolidine-2,5-dione; 2,2,2-trifluoroacetic acid]	–	IC50 [3]: < 1 µM
Cc1cc(Cl)cc(-c2ccnc3cc(CN4C(=O)CCC4=O)sc23)c1O[C@H]1CCNC[C@H]1C [Example 229, 1-((7-(5-Chloro-3-methyl-2-(((3R,4S)-3-methylpiperidin-4-yl)oxy)phenyl)thieno[3,2-b]pyridin-2-yl)methyl)pyrrolidine-2,5-dione]	< 1 µM	–
COC1CCN(C2CC(Oc3c(C)cc(Cl)cc3-c3ccnc4cc(Cn5c(=O)ccn(CC(F)(F)F)c5=O)sc34)C2)C1 (stereo not drawn) [Example 684, 3-[[7-[5-chloro-2-[3-(3-methoxypyrrolidin-1-yl)cyclobutoxy]-3-methyl-phenyl]thieno[3,2-b]pyridin-2-yl]methyl]-1-(2,2,2-trifluoroethyl)pyrimidine-2,4-dione; 2,2,2-trifluoroacetic acid]	–	IC50 [2]: < 1 µM
Cc1cc(Cl)cc(-c2ccnc3cc(Cn4c(=O)ccn(CC(F)(F)F)c4=O)sc23)c1OC1CN2CCC1CC2 (stereo not drawn) [Example 594, 3-[[7-(5-chloro-3-methyl-2-quinuclidin-3-yloxy-phenyl)thieno[3,2-b]pyridin-2-yl]methyl]-1-(2,2,2-trifluoroethyl)pyrimidine-2,4-dione; 2,2,2-trifluoroacetic acid]	–	IC50 [3]: < 1 µM
Cc1cc(Cl)cc(-c2ccnc3cc(Cn4c(=O)ccn(C)c4=O)sc23)c1O[C@@H]1C[C@H]2COCCN2C1 [Example 501, 3-[[7-[2-[[(7R,8aS)-3,4,6,7,8,8a-hexahydro-1H-pyrrolo[2,1-c][1,4]oxazin-7-yl]oxy]-5-chloro-3-methyl-phenyl]thieno[3,2-b]pyridin-2-yl]methyl]-1-methyl-pyrimidine-2,4-dione]	–	IC50 [3]: < 1 µM
O=C1CCC(=O)N1Cc1cc2nccc(-c3cc(Cl)cc(Cl)c3O[C@@H]3CNC[C@@H]3F)c2s1 [Example 123, 1-((7-(3,5-Dichloro-2-(((3R,4S)-4-fluoropyrrolidin-3-yl)oxy)phenyl)thieno[3,2-b]pyridin-2-yl)methyl)pyrrolidine-2,5-dione]	< 1 µM	–
CCC(O)c1cc2nccc(-c3cc(Cl)cc(C)c3OC3CCCNCC3)c2s1 (stereo not drawn) [Example 267, 1-(7-(2-(Azepan-4-yloxy)-5-chloro-3-methylphenyl)thieno[3,2-b]pyridin-2-yl)propan-1-ol]	1 to 10 µM	–
Cc1cc(Cl)cc(-c2ccnc3cc(Cn4c(=O)ccn(C)c4=O)sc23)c1OC1C(C)(C)C(N)C1(C)C (stereo not drawn) [Example 538, 3-[[7-[2-(3-amino-2,2,4,4-tetramethyl-cyclobutoxy)-5-chloro-3-methyl-phenyl]thieno[3,2-b]pyridin-2-yl]methyl]-1-methyl-pyrimidine-2,4-dione]	–	IC50 [3]: < 1 µM
Cc1cc(Cl)cc(-c2ncnc3cc(Cn4c(=O)ccn(CC(F)(F)F)c4=O)sc23)c1O[C@H]1CNC[C@@H]1C [Example 578, 3-[[4-[5-chloro-3-methyl-2-[(3R,4S)-4-methylpyrrolidin-3-yl]oxy-phenyl]thieno[3,2-d]pyrimidin-6-yl]methyl]-1-(2,2,2-trifluoroethyl)pyrimidine-2,4-dione]	–	IC50 [3]: < 1 µM
Cc1cc(C#N)cc(-c2ccnc3cc(CN4C(=O)CCC4=O)sc23)c1O[C@@H]1CNC[C@@H]1F [Example 97, 3-(2-((2,5-Dioxopyrrolidin-1-yl)methyl)thieno[3,2-b]pyridin-7-yl)-4-(((3R,4S)-4-fluoropyrrolidin-3-yl)oxy)-5-methylbenzonitrile]	< 1 µM	–
Cc1cc(C(F)(F)F)cc(-c2ccnc3cc(Cn4c(=O)ccn(C)c4=O)sc23)c1O[C@@H]1CNC[C@@H]1F [Example 132, 3-((7-(2-(((3R,4S)-4-Fluoropyrrolidin-3-yl)oxy)-3-methyl-5-(trifluoromethyl)phenyl)thieno[3,2-b]pyridin-2-yl)methyl)-1-methylpyrimidine-2,4(1H,3H)-dione]	< 1 µM	–
Cc1cc(Cl)cc(-c2ncnc3cc(Cn4c(=O)ccn(CC(F)(F)F)c4=O)sc23)c1O[C@H]1CC[C@H](C)NC1 [Example 562, 3-[[4-[5-chloro-3-methyl-2-[[(3S,6S)-6-methyl-3-piperidyl]oxy]phenyl]thieno[3,2-d]pyrimidin-6-yl]methyl]-1-(2,2,2-trifluoroethyl)pyrimidine-2,4-dione; 2,2,2-trifluoroacetic acid]	–	IC50 [3]: < 1 µM
Cc1cc(Cl)cc(-c2ccnc3cc(CO)sc23)c1O[C@@H]1CN[C@H](C(C)(C)O)C1 [Example 72, 2-((2S,4S)-4-(4-Chloro-2-(2-(hydroxymethyl)thieno[3,2-b]pyridin-7-yl)-6-methylphenoxy)pyrrolidin-2-yl)propan-2-ol]	1 to 10 µM	–
Cc1cc(Cl)cc(-c2ccnc3cc(Cn4c(=O)ccn(CC(F)(F)F)c4=O)sc23)c1OC1CCC1 [Example 683, 3-[[7-[5-chloro-2-(cyclobutoxy)-3-methyl-phenyl]thieno[3,2-b]pyridin-2-yl]methyl]-1-(2,2,2-trifluoroethyl)pyrimidine-2,4-dione]	–	IC50 [2]: < 1 µM
Cc1cc(Cl)cc(-c2ccnc3cc(Cn4c(=O)ccn(C)c4=O)sc23)c1OCCN [Example 552, 3-[[7-[2-(2-aminoethoxy)-5-chloro-3-methyl-phenyl]thieno[3,2-b]pyridin-2-yl]methyl]-1-methyl-pyrimidine-2,4-dione; 2,2,2-trifluoroacetic acid]	–	IC50 [3]: < 1 µM

Now from value to molecule, other results behind:

IC50 [1]	SMILES	also measured
< 1 µM	Cc1cc(Cl)cc(-c2ccnc3cc(Cn4c(=O)ccn(C5COC5)c4=O)sc23)c1O[C@H]1CCCNC1 [Example 5, (S)-3-((7-(5-Chloro-3-methyl-2-(piperidin-3-yloxy)phenyl)thieno[3,2-b]pyridin-2-yl)methyl)-1-(oxetan-3-yl)pyrimidine-2,4(1H,3H)-dione]	–
< 1 µM	Cc1cc(Cl)cc(-c2ccnc3c(F)c(CN4C(=O)CCC4=O)sc23)c1OC1CCNCC1 [Example 242, 1-((7-(5-Chloro-3-methyl-2-(piperidin-4-yloxy)phenyl)-3-fluorothieno[3,2-b]pyridin-2-yl)methyl)pyrrolidine-2,5-dione]	–
10 to 30 µM	Cc1cc(Cl)cc(-c2ccnc3cc(CO)sc23)c1O[C@@H]1CC[C@@H](N(C)C)C1 [Example 93, (7-(5-Chloro-2-(((1R,3R)-3-(dimethylamino)cyclopentyl)oxy)-3-methylphenyl)thieno[3,2-b]pyridin-2-yl)methanol]	–
< 1 µM	Cc1cc(Cl)cc(-c2ccnc3cc(CN4C(=O)C5C(C4=O)C5(C)C)sc23)c1OC1CNCC1(C)F (stereo not drawn) [Example 372, 3-[[7-[5-chloro-2-(4-fluoro-4-methyl-pyrrolidin-3-yl)oxy-3-methyl-phenyl]thieno[3,2-b]pyridin-2-yl]methyl]-6,6-dimethyl-3-azabicyclo[3.1.0]hexane-2,4-dione dihydrochloride]	–
< 1 µM	Cc1cc(Cl)cc(-c2ccnc3c(F)c(CN4C(=O)CCC4=O)sc23)c1O[C@H]1CCCNC1 [Example 163, (S)-1-((7-(5-Chloro-3-methyl-2-(piperidin-3-yloxy)phenyl)-3-fluorothieno[3,2-b]pyridin-2-yl)methyl)pyrrolidine-2,5-dione]	–
< 1 µM	Cc1cc(Cl)cc(-c2ccnc3cc(CN4C(=O)C(C)C(C)C4=O)sc23)c1O[C@H]1CCCNC1 (stereo partly drawn) [Example 296, 1-[[7-[5-chloro-3-methyl-2-[[(3S)-3-piperidyl]oxy]phenyl]thieno[3,2-b]pyridin-2-yl]methyl]-3,4-dimethyl-pyrrolidine-2,5-dione; 2,2,2-trifluoroacetic acid]	–
< 1 µM	Cc1cc(Cl)cc(-c2ccnc3cc(CN4C(=O)CCC4=O)sc23)c1O[C@@H]1CN[C@@H](CF)C1 [Example 101, 1-((7-(5-Chloro-2-(((3S,5R)-5-(fluoromethyl)pyrrolidin-3-yl)oxy)-3-methylphenyl)thieno[3,2-b]pyridin-2-yl)methyl)pyrrolidine-2,5-dione]	–
< 1 µM	Cc1cc(Cl)cc(-c2ccnc3cc(Cn4c(=O)ccn(CC(F)(F)F)c4=O)sc23)c1OC1(C)CNC1 [Example 279, 3-((7-(5-Chloro-3-methyl-2-((3-methylazetidin-3-yl)oxy)phenyl)thieno[3,2-b]pyridin-2-yl)methyl)-1-(2,2,2-trifluoroethyl)pyrimidine-2,4(1H,3H)-dione]	–
1 to 10 µM	O=C1CCC(=O)N1Cc1cc2nccc(-c3cc(Cl)ccc3O[C@@H]3CNC[C@@H]3F)c2s1 [Example 119, 1-((7-(5-Chloro-2-(((3R,4S)-4-fluoropyrrolidin-3-yl)oxy)phenyl)thieno[3,2-b]pyridin-2-yl)methyl)pyrrolidine-2,5-dione]	–

Source: patent US10722514B2 (FLX Bio, Inc., priority 2017, dated 2020)
